“Also recorded” adds a separate entry of the source.
Columns and labels:
KCNQ2/3 heteromultimers = biological target: T1, KCNQ2/3 heteromultimers (Rattus norvegicus, UniProt O88943+O88944); assay: Whole-cell voltage clamp of CHO cells expressing KCNQ2/3 heteromultimers; assay type: cell-based
T1 construct: expressed in transfected cells
Description: (§1) Cell culture and transient transfection—Chinese Hamster Ovary (CHO) cells were grown in 50/50 DMEM/F12 (Cellgro) with 10% FBS (Gibco), 100 U/ml penicillin (Cellgro), 100 μg/ml streptomycin (Cellgro) and 2 mM L-glutamine (Gibco). At 24 hours before transfection, cells were split and plated in 60 mm dishes and were transfected with Lipofectamine2000™ reagent (Invitrogen) according to the manufacturer's instruction. At 24 hours after transfection, cells were split and re-plated onto coverslips coated with poly-L-lysine (Sigma). Plasmid expressing CD4 cDNA as a marker was cotransfected with the channel cDNAs of hKCNQ1 (from Dr. Michael Sanguinetti), hKCNQ4 (from Dr. Vitya Vardanyan), rKCNQ2, rKCNQ3, and hKCNQ5 (from Drs. David McKinnon, Mark Shapiro, and Thomas Jentsch). Prior to recording, anti-CD4 Dynabeads (Dynal. Biotech. Inc.) were added into the medium to allow for identification of the transfected cells. Stable lines expressing Kv2.1, hERG, and Kv4.2 were generated by standard protocols using pcDNA3.1 and maintained at complete medium supplemented with 500 μg/ml G418. The N-type calcium channel stable line was a kind gift from Drs. Diane Lipscombe and David Yue.
(§2) Electrophysiological Recording—Standard whole-cell recording was used. Pipettes were pulled from borosilicate glass capillaries (TW150-4, World Precision Instruments, Sarasota, Fla.). When filled with the intracellular solution, the pipettes have resistances of […]. During the recording, constant perfusion of extracellular solution was maintained using a BPS perfusion system (ALA, Westbury, N.Y.). Pipette solution contained (mM): KCl 145, MgCl2 1, EGTA 5, HEPES 10, MgATP 5 (pH 7.3); extracellular solution contained (mM): NaCl 140, KCl 3, CaCl2 2, MgCl2 1.5, HEPES 10, glucose 10 (pH 7.4). Current and voltage were recorded using an Axopatch-200A amplifier, filtered at 1 kHz and digitized using a DigiData 1322A with pClamp 9.2 software (Axon Instruments, Foster City, Calif.). Series resistance compensation was also used and set to 60-80%.
Data and Statistical Analysis—Patch-clamp data were preprocessed using Clampfit 9.2 (Axon Instruments, Foster City, Calif.) and then analyzed in Origin 7 (OriginLab, Northampton, Mass.). The activation curve was fitted by the Boltzmann equation: G=(Gmax−Gmin)/[1+exp[(V−V1/2)/S]]+Gmin, where Gmax is the maximum conductance, Gmin is the minimum conductance, V1/2 is the voltage for half of the total numbers of channels to open, and S is the slope factor. The dose response curve was fitted by the Hill equation: E=Emax/(1+(EC50/C)^P), where Emax is the maximum response, C is the drug concentration, EC50 is the drug concentration producing half of the maximum response, and P is the Hill coefficient. The deactivation trace was fitted by the standard exponential equation: I(t)=ΣIi*exp(−t/τi), where I is the current, t is the time and τ is the time constant. Data are presented as means±SE. Significance was estimated using paired two-tailed Student's t-test.

KCNQ3 = biological target: T2, KCNQ3 (Rattus norvegicus, UniProt O88944); assay: Whole-cell voltage clamp of CHO cells expressing KCNQ3; assay type: cell-based; details: 10 μM ZnPy
T2 construct: expressed in transfected cells; host or cells: CHO cells
Description: as §1, with “Stable lines expressing Kv2.1, hERG, and Kv4.2 were generated by standard protocols using pcDNA3.1 and maintained at complete medium supplemented with 500 μg/ml G418. The N-type calcium channel stable line was a kind gift from Drs. Diane Lipscombe and David Yue.” left out
(§3) Electrophysiological Recording—Standard whole-cell recording was used. […] Current and voltage were recorded using an Axopatch-200A amplifier, filtered at 1 kHz and digitized using a DigiData 1322A with pClamp 9.2 software (Axon Instruments, Foster City, Calif.). […]
Data and Statistical Analysis—Patch-clamp data were preprocessed using Clampfit 9.2 (Axon Instruments, Foster City, Calif.) and then analyzed in Origin 7 (OriginLab, Northampton, Mass.). […]

KCNQ5 = biological target: T3, KCNQ5 (Homo sapiens, UniProt Q9NR82); assay: Whole-cell voltage clamp of CHO cells expressing KCNQ5; assay type: cell-based; details: 10 μM ZnPy, extracellular
T3 construct: expressed in transfected cells; host or cells: CHO cells
Description: as §1, with “The N-type calcium channel stable line was a kind gift from Drs. Diane Lipscombe and David Yue.” left out
as §3

[1] = biological target: T4, Kv2.1 delay rectifier voltage-gated potassium channel (Homo sapiens, UniProt Q14721); assay: Channel activity in Kv2.1 stable line; assay type: cell-based
T4 construct: expressed in transfected cells
Description: as §1, with “The N-type calcium channel stable line was a kind gift from Drs. Diane Lipscombe and David Yue.” left out
as §3

N-type calcium channel = biological target: T5, N-type calcium channel (Homo sapiens, UniProt Q00975); assay: Channel activity in N-type calcium channel stable line; assay type: cell-based
T5 construct: expressed in transfected cells; Diane Lipscombe and David Yue
Description: as §1, with “The N-type calcium channel stable line was a kind gift from Drs. Diane Lipscombe and David Yue.” left out
as §3

KCNQ2 L275A = biological target: T6, KCNQ2 L275A (Rattus norvegicus, UniProt O88943, L275A); assay: Whole-cell recording of KCNQ2 L275A mutant; assay type: cell-based
T6 construct: expressed in transfected cells
Excerpt: FIG. 9. KCNQ2 point mutants selectively lose ZnPy sensitivity. […] Each mutation site was indicated based on the predicted transmembrane regions. Dashed line indicates the potentiation level of wt KCNQ2 channel in the absence of ZnPy. […] C. Modeling of the S5-pore-S6 region of KCNQ2.
Mutagenesis—Starting from KCNQ cDNAs, the KCNQ2 point mutants were constructed by recombinant PCR and verified by sequencing.
as §2

M-current = assay: Native M-current in isolated dorsal root ganglion neurons; assay type: cell-based, rat; details: 10 μM ZnPy
Description: (§4) FIG. 10. ZnPy potentiation of native M-current. A. M current recorded from an isolated rat dorsal root ganglion neuron, Vh was −60 mV, stepped to −20 mV, followed by a step to −50 mV, and stepped back to −20 mV. B. Histograms show M-current amplitudes in the presence and absence of 10 μM ZnPy (n=10, * p<0.001). M-current amplitudes were measured by fitting the IM relaxation with an exponential equation. The recording bath solution includes 1 μM TTX, 0.2 mM TEA, 1 mM 4-AP, 50 μM CNQX, and 10 μM bicuculline. C. Membrane potential of an isolated hippocampal neuron was monitored when 10 μM ZnPy was applied in bath solution followed by the addition of 15 μM linopirdine. D. Action potentials elicited by 200 pA current injection to a patched hippocampal neuron. The ZnPy treatments are as indicated.
Neuron Culture—Dorsal root ganglia (DRG) was collected from fourteen-day-old CD rat and incubated in collagenase (sigma, 500 U/ml, 15 min) and then trypsin (Sigma, 1 mg/ml, 30 min) at 37° C. Single DRG neurons were isolated by mechanical trituration with a fire-polished glass Pasteur pipette. […]
as §3

hippocampal neurons = assay: Membrane potential and elicited action potentials of isolated hippocampal neurons; assay type: cell-based, rat; details: 10 μM ZnPy
Description: as §4
Neuron Culture—Dorsal root ganglia (DRG) was collected from fourteen-day-old CD rat and incubated in collagenase (sigma, 500 U/ml, 15 min) and then trypsin (Sigma, 1 mg/ml, 30 min) at 37° C. Single DRG neurons were isolated by mechanical trituration with a fire-polished glass Pasteur pipette. Hippocampal tissue was dissected out from CD rat postnatal day 0. The tissue was digested with papain (Worthington Biochem, 20 U/ml, 30 min) and resuspended into single cells. The single-cell suspension was plated onto a monolayer of glial cells that were growing on coated cover slips. Cytosine-1-D-arabinofuranoside at 5 μM was added into the culture medium 24-48 hours later to arrest glial cell proliferation. The culture medium consisted of Neurobasal™ medium with B-27 supplement (Gibco), penicillin/streptomycin and 2 mM L-glutamine. All cells were maintained at 37° C. with 5% CO2 prior to recording.
Electrophysiological Recording—Standard whole-cell recording was used. Pipettes were pulled from borosilicate glass capillaries (TW150-4, World Precision Instruments, Sarasota, Fla.). […] Current and voltage were recorded using an Axopatch-200A amplifier, filtered at 1 kHz and digitized using a DigiData 1322A with pClamp 9.2 software (Axon Instruments, Foster City, Calif.). […]

[2] = Rat model of severe global ischemia; details: in vivo

T4 sequence (Q14721 whole entry): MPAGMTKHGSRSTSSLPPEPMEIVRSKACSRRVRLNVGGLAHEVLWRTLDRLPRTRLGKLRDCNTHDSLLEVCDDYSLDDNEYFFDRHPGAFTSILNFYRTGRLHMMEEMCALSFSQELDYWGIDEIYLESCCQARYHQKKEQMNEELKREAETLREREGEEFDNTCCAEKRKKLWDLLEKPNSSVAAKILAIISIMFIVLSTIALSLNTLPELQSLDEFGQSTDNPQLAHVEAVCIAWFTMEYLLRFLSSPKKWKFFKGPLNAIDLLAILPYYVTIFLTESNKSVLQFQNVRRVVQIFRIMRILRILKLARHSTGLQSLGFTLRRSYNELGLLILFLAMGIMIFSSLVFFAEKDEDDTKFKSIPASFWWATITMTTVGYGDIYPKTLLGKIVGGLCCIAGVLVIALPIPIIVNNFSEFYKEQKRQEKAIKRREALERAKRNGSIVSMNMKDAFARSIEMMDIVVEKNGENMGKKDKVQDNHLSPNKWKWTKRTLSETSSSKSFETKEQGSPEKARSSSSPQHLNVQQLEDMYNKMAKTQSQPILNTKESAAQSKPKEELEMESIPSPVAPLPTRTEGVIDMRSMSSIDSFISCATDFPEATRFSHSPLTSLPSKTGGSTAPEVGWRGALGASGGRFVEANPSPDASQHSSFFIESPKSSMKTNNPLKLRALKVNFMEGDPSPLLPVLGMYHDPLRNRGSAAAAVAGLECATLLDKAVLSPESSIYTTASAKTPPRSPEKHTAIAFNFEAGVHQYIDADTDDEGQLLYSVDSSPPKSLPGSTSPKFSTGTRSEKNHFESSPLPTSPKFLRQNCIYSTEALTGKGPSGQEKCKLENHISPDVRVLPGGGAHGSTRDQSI
T5 sequence (Q00975 whole entry): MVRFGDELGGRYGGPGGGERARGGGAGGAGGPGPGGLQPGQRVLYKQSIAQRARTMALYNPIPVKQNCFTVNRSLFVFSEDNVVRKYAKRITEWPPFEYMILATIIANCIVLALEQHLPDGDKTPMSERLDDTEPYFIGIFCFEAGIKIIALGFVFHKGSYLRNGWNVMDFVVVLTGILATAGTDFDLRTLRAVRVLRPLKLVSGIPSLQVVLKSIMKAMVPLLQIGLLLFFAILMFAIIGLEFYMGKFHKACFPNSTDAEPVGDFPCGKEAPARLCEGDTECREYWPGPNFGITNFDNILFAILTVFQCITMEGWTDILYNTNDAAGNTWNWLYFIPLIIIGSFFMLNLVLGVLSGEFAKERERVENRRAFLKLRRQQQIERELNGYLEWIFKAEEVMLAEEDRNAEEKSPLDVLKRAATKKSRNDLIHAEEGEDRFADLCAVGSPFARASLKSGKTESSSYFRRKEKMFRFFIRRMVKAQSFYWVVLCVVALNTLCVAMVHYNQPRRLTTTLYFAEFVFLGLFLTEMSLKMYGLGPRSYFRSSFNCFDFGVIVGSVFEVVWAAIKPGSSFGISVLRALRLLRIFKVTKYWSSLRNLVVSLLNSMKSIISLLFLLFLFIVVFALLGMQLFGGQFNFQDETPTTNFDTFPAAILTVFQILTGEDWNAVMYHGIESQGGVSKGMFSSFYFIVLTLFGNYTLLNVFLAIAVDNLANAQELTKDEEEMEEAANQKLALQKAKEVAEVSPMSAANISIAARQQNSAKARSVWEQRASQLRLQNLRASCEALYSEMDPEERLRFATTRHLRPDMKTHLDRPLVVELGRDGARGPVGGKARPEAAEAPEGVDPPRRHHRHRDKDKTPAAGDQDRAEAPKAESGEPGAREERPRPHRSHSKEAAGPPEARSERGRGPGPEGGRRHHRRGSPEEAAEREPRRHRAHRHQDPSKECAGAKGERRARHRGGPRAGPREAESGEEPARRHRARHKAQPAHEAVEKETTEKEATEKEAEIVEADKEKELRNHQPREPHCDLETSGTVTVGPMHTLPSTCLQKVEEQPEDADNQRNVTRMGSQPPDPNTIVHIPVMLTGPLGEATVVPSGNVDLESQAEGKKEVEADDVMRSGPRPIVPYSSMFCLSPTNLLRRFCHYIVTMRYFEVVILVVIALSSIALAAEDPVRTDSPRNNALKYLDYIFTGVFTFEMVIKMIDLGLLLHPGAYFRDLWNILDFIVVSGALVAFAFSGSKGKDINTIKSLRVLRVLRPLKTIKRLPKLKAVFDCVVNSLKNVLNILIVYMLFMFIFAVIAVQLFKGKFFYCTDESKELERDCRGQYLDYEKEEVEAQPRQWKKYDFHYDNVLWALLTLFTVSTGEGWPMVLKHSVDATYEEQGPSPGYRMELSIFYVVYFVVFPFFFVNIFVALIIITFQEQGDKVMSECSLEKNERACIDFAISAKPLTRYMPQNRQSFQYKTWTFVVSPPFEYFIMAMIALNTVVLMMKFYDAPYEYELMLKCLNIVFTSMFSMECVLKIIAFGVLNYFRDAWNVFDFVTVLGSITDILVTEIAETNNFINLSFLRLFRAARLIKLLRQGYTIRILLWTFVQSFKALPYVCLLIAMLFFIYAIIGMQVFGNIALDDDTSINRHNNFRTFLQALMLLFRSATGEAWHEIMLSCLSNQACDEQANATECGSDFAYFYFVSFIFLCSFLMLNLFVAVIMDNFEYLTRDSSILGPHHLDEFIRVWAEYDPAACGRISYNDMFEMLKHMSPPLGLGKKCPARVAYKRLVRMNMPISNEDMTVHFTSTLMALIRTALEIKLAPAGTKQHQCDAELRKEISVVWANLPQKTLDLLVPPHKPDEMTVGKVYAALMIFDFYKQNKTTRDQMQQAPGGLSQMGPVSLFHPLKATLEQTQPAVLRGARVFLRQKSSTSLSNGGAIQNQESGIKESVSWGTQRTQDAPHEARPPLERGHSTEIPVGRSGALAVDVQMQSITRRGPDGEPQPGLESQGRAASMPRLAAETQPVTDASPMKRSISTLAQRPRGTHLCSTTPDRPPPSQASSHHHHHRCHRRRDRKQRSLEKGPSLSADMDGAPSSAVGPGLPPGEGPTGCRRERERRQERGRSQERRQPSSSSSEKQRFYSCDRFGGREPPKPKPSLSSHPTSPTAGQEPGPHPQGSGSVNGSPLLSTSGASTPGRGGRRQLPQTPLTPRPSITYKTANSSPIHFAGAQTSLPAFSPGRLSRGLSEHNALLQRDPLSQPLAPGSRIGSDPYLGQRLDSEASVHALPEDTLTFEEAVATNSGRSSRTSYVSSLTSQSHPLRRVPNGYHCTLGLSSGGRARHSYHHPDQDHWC
T5 sequence (P54284 whole entry partner): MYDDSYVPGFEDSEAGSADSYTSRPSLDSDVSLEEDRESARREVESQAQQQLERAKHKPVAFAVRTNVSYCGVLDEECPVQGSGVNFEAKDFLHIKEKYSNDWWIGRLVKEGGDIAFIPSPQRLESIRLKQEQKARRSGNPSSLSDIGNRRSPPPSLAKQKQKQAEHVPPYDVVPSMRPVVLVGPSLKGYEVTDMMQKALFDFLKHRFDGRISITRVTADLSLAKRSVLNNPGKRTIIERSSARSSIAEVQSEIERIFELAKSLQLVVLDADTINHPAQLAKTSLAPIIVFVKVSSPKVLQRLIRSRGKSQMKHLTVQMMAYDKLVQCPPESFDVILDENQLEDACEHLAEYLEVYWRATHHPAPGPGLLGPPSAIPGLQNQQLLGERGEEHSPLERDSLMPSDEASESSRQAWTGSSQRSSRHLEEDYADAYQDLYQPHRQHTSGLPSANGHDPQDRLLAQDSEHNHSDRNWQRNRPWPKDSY
T5 sequence (P54289 25-946 partner limits assumed): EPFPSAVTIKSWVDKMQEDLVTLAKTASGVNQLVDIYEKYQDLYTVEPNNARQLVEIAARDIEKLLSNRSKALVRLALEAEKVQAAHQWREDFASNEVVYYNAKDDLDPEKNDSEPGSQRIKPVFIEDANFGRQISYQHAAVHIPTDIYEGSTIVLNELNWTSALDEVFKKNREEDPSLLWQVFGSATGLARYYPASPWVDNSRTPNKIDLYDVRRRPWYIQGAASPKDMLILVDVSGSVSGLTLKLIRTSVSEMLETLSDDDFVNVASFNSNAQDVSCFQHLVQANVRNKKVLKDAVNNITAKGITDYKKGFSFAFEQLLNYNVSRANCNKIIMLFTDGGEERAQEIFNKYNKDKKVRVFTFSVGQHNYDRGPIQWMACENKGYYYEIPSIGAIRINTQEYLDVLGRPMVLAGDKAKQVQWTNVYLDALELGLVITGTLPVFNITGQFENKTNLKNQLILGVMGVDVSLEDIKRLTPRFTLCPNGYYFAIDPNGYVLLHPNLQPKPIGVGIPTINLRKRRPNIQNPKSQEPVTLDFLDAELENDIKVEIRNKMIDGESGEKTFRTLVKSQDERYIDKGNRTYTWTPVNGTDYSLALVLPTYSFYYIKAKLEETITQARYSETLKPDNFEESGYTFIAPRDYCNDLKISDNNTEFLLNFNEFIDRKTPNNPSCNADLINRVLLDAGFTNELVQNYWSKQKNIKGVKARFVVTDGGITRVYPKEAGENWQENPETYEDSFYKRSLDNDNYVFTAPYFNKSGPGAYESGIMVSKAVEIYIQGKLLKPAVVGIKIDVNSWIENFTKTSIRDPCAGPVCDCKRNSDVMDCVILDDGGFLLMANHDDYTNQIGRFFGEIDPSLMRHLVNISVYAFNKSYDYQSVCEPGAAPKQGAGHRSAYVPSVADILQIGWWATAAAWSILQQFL
T5 sequence (P54289 947-1103 partner limits assumed): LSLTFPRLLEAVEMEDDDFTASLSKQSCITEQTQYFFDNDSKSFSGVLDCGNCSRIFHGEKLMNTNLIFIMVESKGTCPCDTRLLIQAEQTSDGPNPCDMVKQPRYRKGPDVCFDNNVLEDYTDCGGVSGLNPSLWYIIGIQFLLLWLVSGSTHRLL

S=c1ccccn1[O][Zn][O]n1ccccc1=S [ZnPy, Zinc Pyrithione]
hyperpolarizing shift of V1/2 (KCNQ2/3 heteromultimers; 10 μM ZnPy): 24.4±0.8 mV
V1/2 in presence of compound (KCNQ2/3 heteromultimers; 10 μM ZnPy, control −20.3±0.8 mV): −44.7±1.9 mV
activation time constant (KCNQ2/3 heteromultimers; +50 mV, with ZnPy, control 75.6±4.9): 157.8±23.5 milliseconds
Hill coefficient of dose dependent curve (KCNQ2/3 heteromultimers; KCNQ2/3): 1.4
EC50 (KCNQ2/3 heteromultimers; KCNQ2/3 heteromultimers, read-out: EC50 of midpoint of activation voltage (V1/2) shift): 2400 ± 400 nM
deactivation time constant (KCNQ2/3 heteromultimers; −120 mV, 10 μM ZnPy, control 12.4±0.7): 41.9±6.4 milliseconds
change of V1/2 (KCNQ3): no change on V1/2
current potentiation (KCNQ3; extracellular): did not show any current potentiation; also recorded: has no effect on KCNQ3
effect on channel activity (KCNQ5): became conductive upon ZnPy treatment
potentiation of channel activity [1]: did not potentiate
potentiation of channel activity (N-type calcium channel): did not potentiate
change in V1/2 caused by ZnPy (KCNQ2 L275A): significant reduction on changes in V1/2
potentiation of M-current amplitude (M-current): 1.9 fold
effect on membrane potential (hippocampal neurons): noticeable hyperpolarization of membrane potential
effect on repetitive firing elicited by current injection (hippocampal neurons; 200 pA current injection): immediately abolished the repetitive firing
neuroprotection [2]: protection against cell loss in the selectively vulnerable zone of the CA1 region of the hippocampus
